In patent US6737383B1, “Herbicidal oxadiazolidines” (priority 1999, dated 2004):

Experiments:
[1] = test system: cocklebur; assay: Test B pre/postemergence cocklebur; type: in vivo, Xanthium strumarium
Summary of the method: (§1)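 Herbicidal effect was estimated by eye on a ten-point control scale after plants spent twelve to sixteen days in a greenhouse following soil or foliar treatment. Foliar sprays targeted plants at one to four leaves; all doses were formulated in a non-phytotoxic solvent with surfactant.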

[2] = test system: corn; assay: Test B pre/postemergence corn; type: in vivo, Zea mays
Summary of the method: as §1

[3] = test system: blackgrass; assay: Test B pre/postemergence blackgrass; type: in vivo, Alopecurus myosuroides
Summary of the method: as §1

[4] = test system: bamyardgrass; assay: Test B flood test barnyardgrass; type: in vivo, Echinochloa crus-galli
Summary of the method: (§2)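 Each value is a visual injury score relative to controls, with 10 meaning complete control and 0 no effect. Evaluation took place twelve to sixteen days after the 2-leaf-stage plants were treated and kept in the greenhouse.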

[5] = test system: rape; assay: Test B pre/postemergence rape; type: in vivo, Brassica napus
Summary of the method: as §1

[6] = test system: velvetleaf; assay: Test B pre/postemergence velvetleaf; type: in vivo, Abutilon theophrasti
Summary of the method: as §1

[7] = test system: purple nutsedge; assay: Test B pre/postemergence purple nutsedge; type: in vivo, Cyperus rotundus
Summary of the method: as §1

[8] = test system: rice; assay: Test B flood test rice; type: in vivo, Oryza sativa
Summary of the method: as §2

[9] = test system: soybean; assay: Test B pre/postemergence soybean; type: in vivo, Glycine max
Summary of the method: as §1

[10] = test system: wild oat; assay: Test B pre/postemergence wild oat; type: in vivo, Avena fatua
Summary of the method: as §1

[11] = test system: pigweed; assay: Test B pre/postemergence pigweed; type: in vivo, Amaranthus retroflexus
Summary of the method: as §1

[12] = test system: smallflower flatsedge; assay: Test B flood test smallflower flatsedge; type: in vivo, Cyperus difformis
Summary of the method: as §2

[13] = test system: morningglory; assay: Test B pre/postemergence morningglory; type: in vivo, Ipomoea hederacea
Summary of the method: as §1

[14] = test system: sugar beet; assay: Test B pre/postemergence sugar beet; type: in vivo, Beta vulgaris
Summary of the method: as §1

[15] = test system: bedstraw; assay: Test B pre/postemergence bedstraw; type: in vivo, Galium aparine
Summary of the method: as §1

[16] = test system: surinam grass; assay: Test B pre/postemergence surinam grass; type: in vivo, Brachiaria decumbens
Summary of the method: as §1

[17] = Postemergence, Rate 62 g/ha, scale 0 to 10, 0 is no effect, 10 is complete control
[18] = Postemergence, Rate 250 g/ha, scale 0 to 10, 0 no effect, 10 complete control
[19] = Preemergence, Rate 31 g/ha, visual rating, scale 0 to 10 (0 no effect, 10 complete control)
[20] = Preemergence, Rate 125 g/ha, scale 0 to 10 (0 no effect, 10 complete control)
[21] = Preemergence, Rate 250 g/ha, scale of 0 to 10 where 0 is no effect and 10 is complete control
[22] = Rate 31 g/ha, Postemergence, scale 0 to 10
[23] = Rate 125 g/ha, Postemergence, scale 0 to 10, 0 no effect, 10 complete control
[24] = Preemergence, Rate 62 g/ha, scale 0 to 10, 0 is no effect, 10 is complete control
[25] = Rate 125 g/ha, Postemergence section (flood test species), scale 0 to 10, 0 no effect, 10 complete control
[26] = Rate 500 g/ha, Postemergence section of Table B, 0 to 10 scale (0 no effect, 10 complete control)
[27] = flood test, listed under Postemergence, Rate 250 g/ha, scale 0 to 10, 0 no effect, 10 complete control

For `Cc1cccc(C)c1-n1c(=O)on(C(=O)N(c2ccc(F)cc2F)C(C)C)c1=O` [Compound 28], the “Cocklebur plant response rating” value [1, 17] was 0, the “Cocklebur plant response rating” value [1, 18] was 3 and the “Cocklebur plant response rating” value [1, 19] was 0. For the same compound, the “Plant response rating, Cocklebur” value [1, 20] was 0, the “Plant response rating, Cocklebur” value [1, 21] was 0 and the “Cocklebur plant response rating” value [1, 22] was 0. For the same compound, the “Cocklebur plant response rating” value [1, 23] was 0, the “Corn plant response rating” value [2, 17] was 0 and the “Corn plant response rating” value [2, 18] was 0. The “Corn plant response rating” value [2, 19] was 0, the “Plant response rating, Corn” value [2, 24] was 0 and the “Plant response rating, Corn” value [2, 20] was 0. The “Plant response rating, Corn” value [2, 21] was 0, the “Corn plant response rating” value [2, 22] was 0 and the “Corn plant response rating” value [2, 23] was 0. The “Blackgrass plant response rating” value [3, 17] was 0, the “Blackgrass plant response rating” value [3, 18] was 6 and the “Blackgrass plant response rating” value [3, 19] was 0. The “Plant response rating, Blackgrass” value [3, 24] was 0, the “Plant response rating, Blackgrass” value [3, 20] was 0 and the “Plant response rating, Blackgrass” value [3, 21] was 3. The “Blackgrass plant response rating” value [3, 22] was 0, the “Blackgrass plant response rating” value [3, 23] was 2 and the “Barnyardgrass plant response rating” value [4, 17] was 5. The “Barnyardgrass plant response rating” value [4, 25] was 8, the “Barnyardgrass plant response rating” value [4, 26] was 10 and the “Barnyardgrass plant response rating” value [4, 27] was 9. For the same compound, the “Rape plant response rating” value [5, 17] was 0, the “Rape plant response rating” value [5, 18] was 0 and the “Rape plant response rating” value [5, 19] was 0. The “Plant response rating, Rape” value [5, 24] was 0, the “Plant response rating, Rape” value [5, 20] was 0 and the “Plant response rating, Rape” value [5, 21] was 0. The “Rape plant response rating” value [5, 22] was 0, the “Rape plant response rating” value [5, 23] was 0 and the “Velvetleaf plant response rating” value [6, 17] was 0. The “Velvetleaf plant response rating” value [6, 18] was 0, the “Velvetleaf plant response rating” value [6, 19] was 0 and the “Plant response rating, Velvetleaf” value [6, 24] was 0. For the same compound, the “Plant response rating, Velvetleaf” value [6, 20] was 0, the “Plant response rating, Velvetleaf” value [6, 21] was 0 and the “Velvetleaf plant response rating” value [6, 23] was 0. The “Nutsedge plant response rating” value [7, 17] was 0, the “Nutsedge plant response rating” value [7, 18] was 0 and the “Nutsedge plant response rating” value [7, 19] was 0. The “Plant response rating, Nutsedge” value [7, 24] was 0, the “Plant response rating, Nutsedge” value [7, 20] was 0 and the “Plant response rating, Nutsedge” value [7, 21] was 0. For the same compound, the “Nutsedge plant response rating” value [7, 22] was 0, the “Nutsedge plant response rating” value [7, 23] was 0 and the “Rice plant response rating” value [8, 17] was 0. The “Rice plant response rating” value [8, 25] was 0, the “Rice plant response rating” value [8, 26] was 3 and the “Rice plant response rating” value [8, 27] was 2. The “Soybean plant response rating” value [9, 17] was 3, the “Soybean plant response rating” value [9, 18] was 3 and the “Soybean plant response rating” value [9, 19] was 0. The “Plant response rating, Soybean” value [9, 24] was 0, the “Plant response rating, Soybean” value [9, 20] was 0 and the “Plant response rating, Soybean” value [9, 21] was 0. The “Soybean plant response rating” value [9, 23] was 3, the “Wild oats plant response rating” value [10, 17] was 0 and the “Wild oats plant response rating” value [10, 18] was 0. The “Wild oats plant response rating” value [10, 19] was 0, the “Plant response rating, Wild oats” value [10, 20] was 0 and the “Plant response rating, Wild oats” value [10, 21] was 3. For the same compound, the “Wild oats plant response rating” value [10, 23] was 0, the “Redroot pigweed plant response rating” value [11, 17] was 0 and the “Redroot pigweed plant response rating” value [11, 18] was 2. For the same compound, the “Redroot pigweed plant response rating” value [11, 19] was 0, the “Plant response rating, Redroot pigweed” value [11, 24] was 0 and the “Plant response rating, Redroot pigweed” value [11, 20] was 0. For the same compound, the “Plant response rating, Redroot pigweed” value [11, 21] was 1, the “Redroot pigweed plant response rating” value [11, 22] was 0 and the “Redroot pigweed plant response rating” value [11, 23] was 1. For the same compound, the “S. Flatsedge plant response rating” value [12, 17] was 0, the “S. Flatsedge plant response rating” value [12, 25] was 0 and the “S. Flatsedge plant response rating” value [12, 27] was 0. The “Morningglory plant response rating” value [13, 17] was 2, the “Morningglory plant response rating” value [13, 18] was 2 and the “Morningglory plant response rating” value [13, 19] was 0. The “Plant response rating, Morningglory” value [13, 24] was 0, the “Plant response rating, Morningglory” value [13, 20] was 0 and the “Plant response rating, Morningglory” value [13, 21] was 0. The “Morningglory plant response rating” value [13, 22] was 0, the “Morningglory plant response rating” value [13, 23] was 2 and the “Sugarbeets plant response rating” value [14, 17] was 1. The “Sugarbeets plant response rating” value [14, 18] was 1, the “Sugarbeets plant response rating” value [14, 19] was 0 and the “Plant response rating, Sugarbeets” value [14, 24] was 0. For the same compound, the “Plant response rating, Sugarbeets” value [14, 20] was 0, the “Plant response rating, Sugarbeets” value [14, 21] was 0 and the “Sugarbeets plant response rating” value [14, 23] was 1. For the same compound, the “Bedstraw plant response rating” value [15, 17] was 3, the “Bedstraw plant response rating” value [15, 18] was 8 and the “Bedstraw plant response rating” value [15, 19] was 0. For the same compound, the “Plant response rating, Bedstraw” value [15, 24] was 0, the “Plant response rating, Bedstraw” value [15, 20] was 0 and the “Plant response rating, Bedstraw” value [15, 21] was 1. For the same compound, the “Bedstraw plant response rating” value [15, 22] was 3, the “B. signalgrass plant response rating” value [16, 17] was 0 and the “B. signalgrass plant response rating” value [16, 18] was 0. The “B. signalgrass plant response rating” value [16, 19] was 0, the “Plant response rating, B. signalgrass” value [16, 24] was 0 and the “Plant response rating, B. signalgrass” value [16, 20] was 0. For the same compound, the “Plant response rating, B. signalgrass” value [16, 21] was 0, the “B. signalgrass plant response rating” value [16, 22] was 0 and the “B. signalgrass plant response rating” value [16, 23] was 0.
